Measured values published in patent US12083124B2 (Incyte Corporation, priority 2019, dated 2024).
Where two headings read alike, the source gives them in different places.

Experiments:
[1] = target: wild-type un-phosphorylated FGFR3 (Homo sapiens, UniProt P22607); test: FGFR Enzymatic Assay (FRET peptide phosphorylation), FGFR3
[2] = target: wild-type un-phosphorylated FGFR1 (Homo sapiens, UniProt P11362); test: FGFR Enzymatic Assay (FRET peptide phosphorylation), FGFR1; conditions: pre-incubated for 4 hours
Sequence of wild-type un-phosphorylated FGFR1 (P11362 22-822): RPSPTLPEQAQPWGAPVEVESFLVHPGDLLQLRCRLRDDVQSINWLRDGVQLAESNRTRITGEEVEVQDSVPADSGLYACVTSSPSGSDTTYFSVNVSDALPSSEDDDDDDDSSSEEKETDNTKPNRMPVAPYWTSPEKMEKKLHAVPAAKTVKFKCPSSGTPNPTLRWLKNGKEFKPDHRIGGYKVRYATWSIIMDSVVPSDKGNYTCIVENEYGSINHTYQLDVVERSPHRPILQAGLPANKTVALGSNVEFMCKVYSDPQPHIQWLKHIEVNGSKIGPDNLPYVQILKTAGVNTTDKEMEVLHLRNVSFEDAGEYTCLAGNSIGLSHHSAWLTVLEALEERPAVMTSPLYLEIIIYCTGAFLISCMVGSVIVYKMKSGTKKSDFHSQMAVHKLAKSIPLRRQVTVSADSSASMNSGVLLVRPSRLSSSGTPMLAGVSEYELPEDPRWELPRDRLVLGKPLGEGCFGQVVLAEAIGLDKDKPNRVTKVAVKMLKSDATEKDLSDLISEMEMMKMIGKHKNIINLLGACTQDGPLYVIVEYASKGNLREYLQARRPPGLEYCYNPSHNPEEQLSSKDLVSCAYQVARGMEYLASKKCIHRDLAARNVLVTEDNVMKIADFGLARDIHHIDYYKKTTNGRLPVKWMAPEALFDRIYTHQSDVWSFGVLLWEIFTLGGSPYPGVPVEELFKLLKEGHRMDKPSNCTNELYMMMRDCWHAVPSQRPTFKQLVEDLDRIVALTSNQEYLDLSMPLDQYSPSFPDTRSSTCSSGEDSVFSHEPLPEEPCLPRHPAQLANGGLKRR

[3] = target: wild-type un-phosphorylated FGFR4 (Homo sapiens, UniProt P22455); test: FGFR Enzymatic Assay (FRET peptide phosphorylation), FGFR4
Sequence of wild-type un-phosphorylated FGFR4 (P22455 22-802): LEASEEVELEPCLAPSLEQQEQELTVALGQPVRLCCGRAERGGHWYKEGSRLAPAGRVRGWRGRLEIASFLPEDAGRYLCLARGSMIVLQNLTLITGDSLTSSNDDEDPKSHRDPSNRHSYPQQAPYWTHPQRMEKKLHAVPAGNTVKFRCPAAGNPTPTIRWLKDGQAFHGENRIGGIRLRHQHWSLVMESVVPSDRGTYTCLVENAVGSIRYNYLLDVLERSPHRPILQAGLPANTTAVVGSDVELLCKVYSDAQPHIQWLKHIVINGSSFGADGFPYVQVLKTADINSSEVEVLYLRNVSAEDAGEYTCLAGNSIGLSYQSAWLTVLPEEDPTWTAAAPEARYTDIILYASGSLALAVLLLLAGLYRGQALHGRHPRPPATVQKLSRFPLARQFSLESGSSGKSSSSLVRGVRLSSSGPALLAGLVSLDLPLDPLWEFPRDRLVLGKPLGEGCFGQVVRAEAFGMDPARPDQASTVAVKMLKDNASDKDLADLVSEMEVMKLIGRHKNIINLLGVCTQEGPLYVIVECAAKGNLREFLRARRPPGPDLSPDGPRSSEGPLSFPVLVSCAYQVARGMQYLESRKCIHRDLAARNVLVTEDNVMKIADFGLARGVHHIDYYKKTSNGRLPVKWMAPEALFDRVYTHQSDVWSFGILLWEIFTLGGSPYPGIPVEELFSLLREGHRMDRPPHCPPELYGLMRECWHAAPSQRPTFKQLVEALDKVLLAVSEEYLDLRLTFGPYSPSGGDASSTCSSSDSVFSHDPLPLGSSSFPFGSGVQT

[4] = target: wild-type un-phosphorylated FGFR2 (Homo sapiens, UniProt P21802); test: FGFR Enzymatic Assay (FRET peptide phosphorylation), FGFR2
Sequence of wild-type un-phosphorylated FGFR2 (P21802 22-821): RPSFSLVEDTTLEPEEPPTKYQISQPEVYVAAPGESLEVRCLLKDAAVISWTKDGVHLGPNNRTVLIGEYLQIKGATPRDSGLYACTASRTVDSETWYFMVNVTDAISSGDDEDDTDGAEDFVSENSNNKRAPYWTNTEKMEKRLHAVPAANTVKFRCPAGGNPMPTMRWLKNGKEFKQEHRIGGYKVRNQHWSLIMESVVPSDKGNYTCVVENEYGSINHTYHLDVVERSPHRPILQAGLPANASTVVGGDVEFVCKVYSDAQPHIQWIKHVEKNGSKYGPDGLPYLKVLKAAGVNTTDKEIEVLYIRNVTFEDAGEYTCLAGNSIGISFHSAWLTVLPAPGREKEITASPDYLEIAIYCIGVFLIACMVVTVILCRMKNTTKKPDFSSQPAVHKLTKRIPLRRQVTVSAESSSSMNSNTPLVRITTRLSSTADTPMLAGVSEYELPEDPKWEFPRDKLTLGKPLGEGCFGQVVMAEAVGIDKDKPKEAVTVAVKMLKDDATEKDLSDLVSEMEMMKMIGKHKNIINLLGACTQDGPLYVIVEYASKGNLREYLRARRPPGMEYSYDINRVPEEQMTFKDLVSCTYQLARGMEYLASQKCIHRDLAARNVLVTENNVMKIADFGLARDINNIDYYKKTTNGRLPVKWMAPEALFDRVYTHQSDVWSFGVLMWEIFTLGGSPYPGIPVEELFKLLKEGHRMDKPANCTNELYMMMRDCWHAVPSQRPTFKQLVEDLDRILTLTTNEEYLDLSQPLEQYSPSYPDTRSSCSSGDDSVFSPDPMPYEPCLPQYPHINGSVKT

[5] = FGFR1, wild-type un-phosphorylated FGFR1
[6] = read-out: FGFR1, wild-type un-phosphorylated FGFR1
[7] = read-out: FGFR4, wild-type un-phosphorylated FGFR4, pre-incubated for 4 hours

Sequence of wild-type un-phosphorylated FGFR3 (P22607 23-806): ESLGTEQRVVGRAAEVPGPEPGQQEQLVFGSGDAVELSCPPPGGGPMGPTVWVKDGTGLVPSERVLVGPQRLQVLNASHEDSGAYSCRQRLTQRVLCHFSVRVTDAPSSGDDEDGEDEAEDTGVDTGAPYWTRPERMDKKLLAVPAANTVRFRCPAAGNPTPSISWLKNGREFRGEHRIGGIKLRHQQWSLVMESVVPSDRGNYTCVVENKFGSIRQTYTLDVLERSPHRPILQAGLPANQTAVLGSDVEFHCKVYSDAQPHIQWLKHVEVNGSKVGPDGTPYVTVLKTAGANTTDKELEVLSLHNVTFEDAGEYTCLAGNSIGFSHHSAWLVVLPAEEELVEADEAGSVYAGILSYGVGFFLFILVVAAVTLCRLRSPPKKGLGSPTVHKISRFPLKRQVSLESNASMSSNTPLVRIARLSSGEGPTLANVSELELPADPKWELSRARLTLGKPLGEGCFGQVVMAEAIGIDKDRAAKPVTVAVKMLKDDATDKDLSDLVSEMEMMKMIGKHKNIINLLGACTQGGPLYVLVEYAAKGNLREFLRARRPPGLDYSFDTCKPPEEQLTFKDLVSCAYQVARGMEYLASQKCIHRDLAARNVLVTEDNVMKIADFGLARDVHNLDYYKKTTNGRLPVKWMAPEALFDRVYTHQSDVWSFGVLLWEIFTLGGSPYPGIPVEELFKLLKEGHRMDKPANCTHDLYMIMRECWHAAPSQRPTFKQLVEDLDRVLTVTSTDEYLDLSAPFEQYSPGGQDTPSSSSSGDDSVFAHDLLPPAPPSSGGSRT

| IC50 [1] | IC50 [2, 5] | IC50 [3] | IC50 [4] | IC50 [2, 6] | IC50 [3, 7] | Compound |
| --- | --- | --- | --- | --- | --- | --- |
| < 6 nM | 40 to 100 nM | > 100 nM | < 6 nM | – | – | COc1cc2[nH]nc(-c3ccc(N4CC(N(C)C(=O)CO)C4)nc3)c2nc1-c1cccc(C)c1C [Example 98, N-(1-(5-(5-(2,3-Dimethylphenyl)-6-methoxy-1H-pyrazolo[4,3-b]pyridin-3-yl)pyridin-2-yl)azetidin-3-yl)-2-hydroxy-N-methylacetamide] |
| < 6 nM | – | – | < 6 nM | 6 to 40 nM | 6 to 40 nM | COc1cc2[nH]nc(-c3ccc(C4CCN(C(C)=O)CC4)nc3)c2nc1-c1cccc2c1CCC2 [Example 99, 1-(4-(5-(5-(2,3-Dihydro-1H-inden-4-yl)-6-methoxy-1H-pyrazolo[4,3-b]pyridin-3-yl)pyridin-2-yl)piperidin-1-yl)ethan-1-one] |
| < 6 nM | – | – | < 6 nM | 6 to 40 nM | 6 to 40 nM | COc1cc2[nH]nc(-c3ccc(C4CCN(C(=O)CO)CC4)nc3)c2nc1-c1cccc2c1CCC2 [Example 100, 1-(4-(5-(5-(2,3-Dihydro-1H-inden-4-yl)-6-methoxy-1H-pyrazolo[4,3-b]pyridin-3-yl)pyridin-2-yl)piperidin-1-yl)-2-hydroxyethan-1-one] |
| < 6 nM | – | – | < 6 nM | 6 to 40 nM | 6 to 40 nM | COc1cc2[nH]nc(-c3ccc(C4CCN(C(=O)[C@@H]5CCCN5C)CC4)nc3)c2nc1-c1cccc2c1CCC2 [Example 108, 5-(2,3-Dihydro-1H-inden-4-yl)-6-methoxy-3-(6-(1-(methyl-L-prolyl)piperidin-4-yl)pyridin-3-yl)-1H-pyrazolo[4,3-b]pyridine] |
| < 6 nM | – | – | < 6 nM | 6 to 40 nM | 6 to 40 nM | COc1cc2[nH]nc(-c3ccc(N4CCN(C)CC4)nc3)c2nc1-c1cccc2c1CCC2C#N (centres unmarked) [Example 110, 4-(6-Methoxy-3-(6-(4-methylpiperazin-1-yl)pyridin-3-yl)-1H-pyrazolo[4,3-b]pyridin-5-yl)-2,3-dihydro-1H-indene-1-carbonitrile] |
| < 6 nM | < 6 nM | 40 to 100 nM | < 6 nM | – | – | COc1cc2[nH]nc(-c3cnn(C4CC(C#N)C4)c3)c2nc1-c1cccc2c1CCC2C#N (centres unmarked) [Example 111, 4-(3-(1-(3-Cyanocyclobutyl)-1H-pyrazol-4-yl)-6-methoxy-1H-pyrazolo[4,3-b]pyridin-5-yl)-2,3-dihydro-1H-indene-1-carbonitrile] |
| < 6 nM | 40 to 100 nM | 40 to 100 nM | < 6 nM | – | – | COc1cc2[nH]nc(-c3cnn(C4CCN(C(C)=O)CC4)c3)c2nc1-c1cccc2c1CCC2C#N (centres unmarked) [Example 112, 4-(3-(1-(1-Acetylpiperidin-4-yl)-1H-pyrazol-4-yl)-6-methoxy-1H-pyrazolo[4,3-b]pyridin-5-yl)-2,3-dihydro-1H-indene-1-carbonitrile] |
| < 6 nM | – | 40 to 100 nM | < 6 nM | 6 to 40 nM | – | COc1cc2[nH]nc(-c3ccc(C4CCC(O)CC4)nc3)c2nc1-c1cccc2c1CCC2C#N (centres unmarked) [Example 113, 4-(3-(6-(4-Hydroxycyclohexyl)pyridin-3-yl)-6-methoxy-1H-pyrazolo[4,3-b]pyridin-5-yl)-2,3-dihydro-1H-indene-1-carbonitrile] |
| < 6 nM | – | – | < 6 nM | 6 to 40 nM | 6 to 40 nM | COc1cc2[nH]nc(-c3ccc(N4CCN(CCO)CC4)nc3)c2nc1-c1cccc2c1CCC2C#N (centres unmarked) [Example 114, 4-(3-(6-(4-(2-Hydroxyethyl)piperazin-1-yl)pyridin-3-yl)-6-methoxy-1H-pyrazolo[4,3-b]pyridin-5-yl)-2,3-dihydro-1H-indene-1-carbonitrile] |
| < 6 nM | – | – | < 6 nM | 6 to 40 nM | 6 to 40 nM | COc1cc2[nH]nc(-c3ccc(C4CCN(C(=O)CO)CC4)nc3)c2nc1-c1cccc2c1CCC2C#N (centres unmarked) [Example 115, 4-(3-(6-(1-(2-Hydroxyacetyl)piperidin-4-yl)pyridin-3-yl)-6-methoxy-1H-pyrazolo[4,3-b]pyridin-5-yl)-2,3-dihydro-1H-indene-1-carbonitrile] |
| < 6 nM | – | 40 to 100 nM | < 6 nM | 6 to 40 nM | – | COc1cc2[nH]nc(-c3cnn(C4CN(C(=O)CO)C4)c3)c2nc1-c1cccc2c1CCC2 [Example 116, 1-(3-(4-(5-(2,3-Dihydro-1H-inden-4-yl)-6-methoxy-1H-pyrazolo[4,3-b]pyridin-3-yl)-1H-pyrazol-1-yl)azetidin-1-yl)-2-hydroxyethan-1-one] |
| < 6 nM | – | 40 to 100 nM | < 6 nM | 6 to 40 nM | – | COc1cc2[nH]nc(-c3cnn(C4CN(C(=O)CCN(C)C)C4)c3)c2nc1-c1cccc2c1CCC2 [Example 117, 1-(3-(4-(5-(2,3-Dihydro-1H-inden-4-yl)-6-methoxy-1H-pyrazolo[4,3-b]pyridin-3-yl)-1H-pyrazol-1-yl)azetidin-1-yl)-3-(dimethylamino)propan-1-one] |
| < 6 nM | – | 40 to 100 nM | < 6 nM | 6 to 40 nM | – | COc1cc2[nH]nc(-c3cnn(C4CN(C(=O)[C@H](C)N(C)C)C4)c3)c2nc1-c1cccc2c1CCC2 [Example 118, (S)-1-(3-(4-(5-(2,3-Dihydro-1H-inden-4-yl)-6-methoxy-1H-pyrazolo[4,3-b]pyridin-3-yl)-1H-pyrazol-1-yl)azetidin-1-yl)-2-(dimethylamino)propan-1-one] |
| < 6 nM | – | 40 to 100 nM | < 6 nM | 6 to 40 nM | – | COc1cc2[nH]nc(-c3cnn(C4CN(C(=O)[C@@H]5CCN5C)C4)c3)c2nc1-c1cccc2c1CCC2 [Example 119, (S)-(3-(4-(5-(2,3-Dihydro-1H-inden-4-yl)-6-methoxy-1H-pyrazolo[4,3-b]pyridin-3-yl)-1H-pyrazol-1-yl)azetidin-1-yl)(1-methylazetidin-2-yl)methanone] |
| < 6 nM | – | 40 to 100 nM | < 6 nM | 6 to 40 nM | – | COc1cc2[nH]nc(-c3cnn(C4CN(C(=O)CN5CCN(C)CC5)C4)c3)c2nc1-c1cccc2c1CCC2 [Example 120, 1-(3-(4-(5-(2,3-Dihydro-1H-inden-4-yl)-6-methoxy-1H-pyrazolo[4,3-b]pyridin-3-yl)-1H-pyrazol-1-yl)azetidin-1-yl)-2-(4-methylpiperazin-1-yl)ethan-1-one] |
| < 6 nM | – | 40 to 100 nM | < 6 nM | 6 to 40 nM | – | COc1cc2[nH]nc(-c3cnn(C4CN(C(=O)CN5CCC(O)CC5)C4)c3)c2nc1-c1cccc2c1CCC2 [Example 121, 1-(3-(4-(5-(2,3-Dihydro-1H-inden-4-yl)-6-methoxy-1H-pyrazolo[4,3-b]pyridin-3-yl)-1H-pyrazol-1-yl)azetidin-1-yl)-2-(4-hydroxypiperidin-1-yl)ethan-1-one] |
| < 6 nM | – | 40 to 100 nM | < 6 nM | 6 to 40 nM | – | COc1cc2[nH]nc(-c3cnn(C4CN(C(=O)[C@H]5CCN5C)C4)c3)c2nc1-c1cccc2c1CCC2 [Example 122, (R)-(3-(4-(5-(2,3-Dihydro-1H-inden-4-yl)-6-methoxy-1H-pyrazolo[4,3-b]pyridin-3-yl)-1H-pyrazol-1-yl)azetidin-1-yl)(1-methylazetidin-2-yl)methanone] |
